Experimental data reported in ChEMBL document CHEMBL4257529, “Antifungal amphiphilic kanamycins: new life for an old drug” (Medchemcomm, 2018).
≈ marks a conversion by molar mass, not a printed value.

Tests used:
Format in all cases: functional
Candida albicans [1] = experiment: Antifungal activity against sensitive Candida albicans MYA-2876
Fusarium graminearum [2] = experiment: Antifungal activity against Fusarium graminearum infected in wheat plant assessed as fusarium head blight severity at 360 mg/L (reference value: 75%)
Cryptococcus neoformans [3] = experiment: Antifungal activity against Cryptococcus neoformans 90-26
Fusarium graminearum [4] = experiment: Antifungal activity against Fusarium graminearum B-4-5A
Micrococcus luteus = experiment: Antibacterial activity against Micrococcus luteus ATCC 10240
Fusarium graminearum [5] = experiment: Synergistic antifungal activity against Fusarium graminearum B4-5A strain C in presence of fluconazole after 48 hrs by checkerboard method
Fusarium graminearum [6] = experiment: Antifungal activity against Fusarium graminearum B4-5A strain E after 48 hrs by microdilution assay
Escherichia coli = experiment: Antibacterial activity against Escherichia coli TG1
Fusarium graminearum [7] = experiment: Antifungal activity against Fusarium graminearum infected in wheat plant assessed as fusarium head blight incidence at 360 mg/L (reference value: 70%)
Fusarium graminearum [8] = experiment: Synergistic antifungal activity against Fusarium graminearum B4-5A strain E in presence of fluconazole after 48 hrs by microdilution assay
Fusarium graminearum [9] = experiment: Antifungal activity against Fusarium graminearum B4-5A strain D after 48 hrs by microdilution assay
Diutina rugosa = experiment: Antifungal activity against Candida rugosa 95-967
Candida albicans [10] = experiment: Antifungal activity against Candida albicans ATCC 10231
Fusarium graminearum [11] = experiment: Synergistic antifungal activity against Fusarium graminearum infected in wheat plant assessed as fusarium head blight severity at 180 mg/L in presence of 0.438 L/ha prosaro 421 SC (reference value: 75%)
Aspergillus flavus = experiment: Antifungal activity against Aspergillus flavus
Candida albicans [12] = experiment: Antifungal activity against Candida albicans B-311
Fusarium graminearum [13] = experiment: Synergistic antifungal activity against Fusarium graminearum B4-5A strain B in presence of fluconazole after 48 hrs by checkerboard method
Fusarium graminearum [14] = experiment: Synergistic antifungal activity against Fusarium graminearum infected in wheat plant assessed as fusarium head blight index at 180 mg/L in presence of 0.512 L/ha caramba (reference value: 53%)
Fusarium graminearum [15] = experiment: Antifungal activity against Fusarium graminearum B4-5A strain A after 48 hrs by microdilution assay
Fusarium graminearum [16] = experiment: Antifungal activity against Fusarium graminearum infected in wheat plant assessed as spikelet curling at 360 mg/L (reference value: 51.4%)
Fusarium graminearum [17] = experiment: Synergistic antifungal activity against Fusarium graminearum B4-5A strain B in presence of fluconazole after 48 hrs by microdilution assay
Fusarium graminearum [18] = experiment: Synergistic antifungal activity against Fusarium graminearum infected in wheat plant assessed as fusarium head blight incidence at 180 mg/L in presence of 0.438 L/ha prosaro 421 SC (reference value: 70%)
Candida parapsilosis [19] = experiment: Antifungal activity against sensitive Candida parapsilosis; settings: Lodderomyces parapsilosis
Cryptococcus neoformans [20] = experiment: Antifungal activity against Cryptococcus neoformans 94-2586
Fusarium graminearum [21] = experiment: Synergistic antifungal activity against Fusarium graminearum infected in wheat plant assessed as fusarium head blight index at 180 mg/L in presence of 0.438 L/ha prosaro 421 SC (reference value: 53%)
Kluyveromyces marxianus = experiment: Antifungal activity against Candida pseudotropicalis YOGI
Fusarium graminearum [22] = experiment: Synergistic antifungal activity against Fusarium graminearum infected in wheat plant assessed as fusarium head blight index at 360 mg/L in presence of 0.438 L/ha prosaro 421 SC (reference value: 53%)
Fusarium graminearum [23] = experiment: Synergistic antifungal activity against Fusarium graminearum B4-5A strain E in presence of fluconazole after 48 hrs by checkerboard method
Fusarium graminearum [24] = experiment: Synergistic antifungal activity against Fusarium graminearum infected in wheat plant assessed as fusarium head blight incidence at 360 mg/L in presence of 0.512 L/ha caramba (reference value: 70%)
Fusarium graminearum [25] = experiment: Antifungal activity against Fusarium graminearum infected in wheat plant assessed as fusarium head blight severity at 180 mg/L (reference value: 75%)
Fusarium graminearum [26] = experiment: Antifungal activity against Fusarium graminearum infected in wheat plant assessed as contamination of wheat heads and kernels with deoxynivalenol at 360 mg/L (reference value: 1.2 ppm)
Staphylococcus aureus = experiment: Antibacterial activity against Staphylococcus aureus ATCC 25923
Fusarium graminearum [27] = experiment: Synergistic antifungal activity against Fusarium graminearum B4-5A strain E assessed as fluconazole MIC after 48 hrs by microdilution assay
Fusarium graminearum [28] = experiment: Antifungal activity against Fusarium graminearum B4-5A strain C after 48 hrs by microdilution assay
Fusarium graminearum [29] = experiment: Synergistic antifungal activity against Fusarium graminearum infected in wheat plant assessed as fusarium head blight incidence at 360 mg/L in presence of 0.438 L/ha prosaro 421 SC (reference value: 70%)
Fusarium graminearum [30] = experiment: Synergistic antifungal activity against Fusarium graminearum B4-5A strain D in presence of fluconazole after 48 hrs by microdilution assay
Fusarium graminearum [31] = experiment: Synergistic antifungal activity against Fusarium graminearum B4-5A strain A in presence of fluconazole after 48 hrs by microdilution assay
Fusarium graminearum [32] = experiment: Synergistic antifungal activity against Fusarium graminearum B4-5A strain A in presence of fluconazole after 48 hrs by checkerboard method
Fusarium graminearum [33] = experiment: Synergistic antifungal activity against Fusarium graminearum infected in wheat plant assessed as spikelet curling at 360 mg/L in presence of 4 ml/L pyraclostrobin (reference value: 51.4%)
Fusarium graminearum [34] = experiment: Synergistic antifungal activity against Fusarium graminearum B4-5A strain A assessed as fluconazole MIC after 48 hrs by microdilution assay
Fusarium graminearum [35] = experiment: Synergistic antifungal activity against Fusarium graminearum infected in wheat plant assessed as fusarium head blight severity at 360 mg/L in presence of 0.438 L/ha prosaro 421 SC (reference value: 75%)
Fusarium graminearum [36] = experiment: Synergistic antifungal activity against Fusarium graminearum infected in wheat plant assessed as spikelet curling at 360 mg/L in presence of 8 ml/L pyraclostrobin (reference value: 51.4%)
Fusarium graminearum [37] = experiment: Antifungal activity against Fusarium graminearum infected in wheat plant assessed as fusarium head blight incidence at 180 mg/L (reference value: 70%)
Candida parapsilosis [38] = experiment: Antifungal activity against resistant Candida parapsilosis; settings: Lodderomyces parapsilosis
Fusarium graminearum [39] = experiment: Antifungal activity against Fusarium graminearum infected in wheat plant assessed as fusarium head blight index at 360 mg/L (reference value: 53%)
Fusarium graminearum [40] = experiment: Synergistic antifungal activity against Fusarium graminearum infected in wheat plant assessed as fusarium head blight severity at 180 mg/L in presence of 0.512 L/ha caramba (reference value: 75%)
Fusarium graminearum [41] = experiment: Synergistic antifungal activity against Fusarium graminearum infected in wheat plant assessed as fusarium head blight severity at 360 mg/L in presence of 0.512 L/ha caramba (reference value: 75%)
Fusarium oxysporum = experiment: Antifungal activity against Fusarium oxysporum
Fusarium graminearum [42] = experiment: Synergistic antifungal activity against Fusarium graminearum B4-5A strain C in presence of fluconazole after 48 hrs by microdilution assay
Fusarium graminearum [43] = experiment: Antifungal activity against Fusarium graminearum infected in wheat plant assessed as fusarium head blight index at 180 mg/L (reference value: 53%)

Work on `CCCCCCCCS(=O)(=O)OC[C@H]1O[C@H](O[C@@H]2[C@@H](O)[C@H](O[C@H]3O[C@H](CN)[C@@H](O)[C@H](O)[C@H]3O)[C@@H](N)C[C@H]2N)[C@H](O)[C@@H](N)[C@@H]1O` yielded an MIC (Candida albicans [1]) of 15.6 mg/L (≈ 23.6 µM), an Activity (Fusarium graminearum [2]) of 62% and an MIC (Cryptococcus neoformans [3]) of 3.9 to 7.8 mg/L (≈ 5.9 to 11.8 µM). The MIC (Fusarium graminearum [4]) was 7.8 mg/L (≈ 11.8 µM), the MIC (Micrococcus luteus) was 62.5 mg/L (≈ 94.6 µM) and the “fractional inhibitory concentration index (FICI)” value (Fusarium graminearum [5]) was 0.37. It also gave an MIC (Fusarium graminearum [6]) of 16 mg/L (≈ 24.2 µM), an MIC (Escherichia coli) of 125 to 250 mg/L (≈ 189 to 378 µM) and an Activity (Fusarium graminearum [7]) of 14%. For the same molecule, the MIC (Fusarium graminearum [8]) was 4 mg/L, the MIC (Fusarium graminearum [9]) was 16 mg/L (≈ 24.2 µM) and the MIC (Diutina rugosa) was 15.6 mg/L (≈ 23.6 µM). For the same molecule, the MIC (Candida albicans [10]) was 15.6 mg/L (≈ 23.6 µM), the Activity (Fusarium graminearum [11]) was 55% and the MIC (Aspergillus flavus) was 300 mg/L (≈ 454 µM). The MIC (Candida albicans [12]) was > 7.8 mg/L, the “fractional inhibitory concentration index (FICI)” value (Fusarium graminearum [13]) was 0.5 and the Activity_index (Fusarium graminearum [14]) was 7%. It also gave an MIC (Fusarium graminearum [15]) of 16 mg/L (≈ 24.2 µM), an Activity (Fusarium graminearum [16]) of 34.7% and an MIC (Fusarium graminearum [17]) of 4 mg/L. For the same molecule, the Activity (Fusarium graminearum [18]) was 11%, the MIC (Candida parapsilosis [19]) was 15.6 mg/L (≈ 23.6 µM) and the MIC (Cryptococcus neoformans [20]) was 3.9 to 7.8 mg/L (≈ 5.9 to 11.8 µM). It also gave an Activity_index (Fusarium graminearum [21]) of 6%, an MIC (Kluyveromyces marxianus) of 15.6 mg/L (≈ 23.6 µM) and an Activity_index (Fusarium graminearum [22]) of 5%. The “fractional inhibitory concentration index (FICI)” value (Fusarium graminearum [23]) was 0.7, the Activity (Fusarium graminearum [24]) was 13% and the Activity (Fusarium graminearum [25]) was 60%. For the same molecule, the Activity (Fusarium graminearum [26]) was 1.4 ppm, the MIC (Staphylococcus aureus) was 250 mg/L (≈ 378 µM) and the MIC (Fusarium graminearum [27]) was 12.5 mg/L. For the same molecule, the MIC (Fusarium graminearum [28]) was 16 mg/L (≈ 24.2 µM), the Activity (Fusarium graminearum [29]) was 10% and the MIC (Fusarium graminearum [30]) was 8 mg/L. For the same molecule, the MIC (Fusarium graminearum [31]) was 4 mg/L, the “fractional inhibitory concentration index (FICI)” value (Fusarium graminearum [32]) was 0.37 and the Activity (Fusarium graminearum [33]) was 4.7%. The MIC (Fusarium graminearum [34]) was 25 mg/L, the Activity (Fusarium graminearum [35]) was 54% and the Activity (Fusarium graminearum [36]) was 1.5%. For the same molecule, the Activity (Fusarium graminearum [37]) was 15%, the MIC (Candida parapsilosis [38]) was 15.6 to 31.3 mg/L (≈ 23.6 to 47.4 µM) and the Activity_index (Fusarium graminearum [39]) was 8%. It also gave an Activity (Fusarium graminearum [40]) of 50%, an Activity (Fusarium graminearum [41]) of 61% and an MIC (Fusarium oxysporum) of 31.3 mg/L (≈ 47.4 µM). The MIC (Fusarium graminearum [42]) was 4 mg/L and the Activity_index (Fusarium graminearum [43]) was 9%.
